In patent US6300313A, “Means for treating prostate hypertrophy and prostate cancer” (ASTA Medica Aktiengesellschaft, priority 1999, dated 2001):
Non-standard residues stand in square brackets, D forms with d. Residues, ends and D or L forms follow the SMILES beside them. dPhe(4-Cl) = N[C@H](Cc1ccc(Cl)cc1)C(=O)O; d2Nal = N[C@H](Cc1ccc2ccccc2c1)C(=O)O; dCit = NC(=O)NCCC[C@@H](N)C(=O)O; d3Pal = N[C@H](Cc1cccnc1)C(=O)O

Experiments:
BPH patients = details: 500 μg every 12 hours for 4 weeks, cited from earlier work
[1] = system: Prostate carcinoma patients; details: cited from earlier work
BPH = experiment: Clinical therapy of BPH with Cetrorelix (Example 1); format: in vivo, patients; details: Example 1 therapy regimen
Method: Cetrorelix is administered in a dose of 0.5 mg to 2 mg daily for 4 to 8 weeks for the therapy of BPH. A dose of 5 mg to 30 mg, dispensed once per week or every 10 days also over a time period of 4 to 8 weeks as well as one every two weeks or one injection per month of 20 mg to 60 mg can also decisively improve the clinical symptoms and signs. […] The prostate volume decreases by 20 to 40% during the treatment time of 4 to 8 weeks. […] In addition, at least 30% of the patients achieve an improvement of the urine flow of 6 ml/sec with this therapy. This is almost equivalent to an improvement like that associated with the golden standard operation, and in considerably shorter time. […] These clinical benefits continue for at least 3 to 6 months after therapy. This allows a long-term therapy of BPH with only an intermittent treatment of 2 to max. 4 injection cycles over 4 to 8 weeks.

CC(=O)N[C@H](Cc1ccc2ccccc2c1)C(=O)N[C@H](Cc1ccc(Cl)cc1)C(=O)N[C@H](Cc1cccnc1)C(=O)N[C@@H](CO)C(=O)N[C@@H](Cc1ccc(O)cc1)C(=O)N[C@H](CCCNC(N)=O)C(=O)N[C@@H](CC(C)C)C(=O)N[C@@H](CCCNC(=N)N)C(=O)N1CCC[C@H]1C(=O)N[C@H](C)C(N)=O [Cetrorelix] (Ac-[d2Nal][dPhe(4-Cl)][d3Pal]SY[dCit]LRP[dA]-NH2)
symptoms of dysuria and prostate volume (BPH patients): distinct decrease
testosterone levels, initially (BPH patients; initial phase): lowering in testosterone levels to a castration level
testosterone levels in the course of treatment (BPH patients; no castration values during the last three weeks): fluctuated at subnormal levels
testosterone levels, initially ([1]; 500 μg every 12 hours for 6 weeks, initial phase): lowering in testosterone levels to a castration level
overall condition of the patient ([1]; end of the 6 weeks of therapy): considerable improvement
testosterone values at the end of therapy ([1]; end of the 6 weeks of therapy): castration levels
quality of life (BPH): significant improvements
sexual performance (BPH): No limitations in sexual performance are observed
testosterone level (BPH): Submaximal decreases of testosterone occur, but these are above those levels associated with castration
increase of the peak flow of the urine (BPH; 4 to 8 weeks): approximately 3 ml/sec
patients achieving an improvement of the urine flow of 6 ml/sec (BPH; 4 to 8 weeks): at least 30%
